# How the values were obtained:
# [1] = tested on: corpus cavernosal strips (CCS); assay: cAMP levels in isolated CCS (penile organ culture) in response to adenosine; type: cell-based, mouse
# Procedure: FIG. 17. A2BR signaling is required for adenosine-mediated corpus cavernosal strips (CCS) relaxation. (a) CCS of wild type mice were treated with different concentrations of theophiline (1-10 μM) in the presence or absence of adenosine (100 μM). The force changes were measured by force transducer. Data are expressed as mean±SE. *p<0.05, adenosine treated versus the control, **p<0.05, theophiline treated versus the untreated, N=5. (b) CCS from wild type, A2AR, A1R A2BR and A3R-deficient mice were treated with different concentrations of adenosine. The relaxation was measured by force transducer. Data are expressed as mean±SE. *p<0.05, adenosine treated versus the wild type. […] 10 min after treatment, cellular extracts were collected and cAMP levels were measured by using a commercial enzyme immunoassay kit (Amersham Pharmacia). Data are expressed as mean±SE. *p<0.05, adenosine treated versus the control without treatment; **p<0.05, adenosine treated with MRS1706 versus the adenosine treated alone; ***p<0.05, CCS of A2BR-deficient mice treated with adenosine versus the CCS of wild type mice treated with adenosine. […]
# In vitro corpus cavernosum tissue culture. […] Subsequently cavernosal strips were removed at and immediately frozen in liquid nitrogen for phosphorylation of myosin light chain determined by western blot analysis (see below). […]
# [2] = tested on: corpus cavernosal strips (CCS); assay: EFS-induced relaxation of CCS of SCD transgenic mice and controls; type: cell-based, mouse
# Procedure: FIG. 21. Priapic activity seen in SCD transgenic mice is dependent on elevated adenosine in penis via A2BR signaling. (a) Adenosine levels in the penis increased in SCD transgenic mice. Perchloric acid extracts of penile tissues from SCD transgenic mice and control mice were analyzed by HPLC to determine the levels of adenosine. The data are expressed as mean±SE. *p<0.005, (control n=5 and SCD transgenic mice n=6), SCD transgenic mice versus the controls. (b) Increased corpus cavernosum strips (CCS) relaxation by electrical field stimulation (EFS) in SCD transgenic mice. Relaxation effect of EFS with different voltages (0-30V) at 30 Hz and 0.5 ms pulse width, alternating polarity between pulses, in 10 μM phenylephrine-precontracted CCS from the controls (n=5) and SCD transgenic mice (n=5). (c-e) Prolonged penile erection seen in SCD transgenic mice is due to high levels of adenosine in the penis via A2BR signaling. Average EFS-induced relaxation from the PE-precontracted CC strips of the controls and SCD transgenic mice treated without or with PEG-ADA, MRS1706 or ZM241389. EFS-induced force change (c), duration of relaxation by EFS (d) and area under basal line (e) were representative of the CCS relaxation. (n=5 for the controls and n=5 for SCD transgenic mice with or without PEG-ADA, MRS1706 or ZM241389 treatment, respectively). Data are given as means±SE. *p<0.05, SCD transgenic mice versus the controls, **p<0.05, CCS of […] with PEG-ADA, MRS1706 or ZM241389 treatment versus CCS of SCD transgenic mice without treatment; ***p<0.05, CCS of the control mice with MRS1706 and/or L-NAME treatment versus CCS of the control mice without treatment.
# Sickle cell disease (SCD) transgenic mice, expressing exclusively human sickle hemoglobin, were also used. These mice were age-matched, adult male homozygotes [SS^−/−, consisting of a transgene and two targeted gene deletions: (Tg (Hu-miniLCR alpha 1G gamma A gamma delta beta s) Hba0//Hba0 Hbb0//Hbb00) and heterozygotes (SS^−/+, SS^−/− genotype except Hbb0//Hbb+), developed on a mixed-strain background (mouse strains FVB/N, 129, DBA/2, C57BL/6, Black Swiss)^94,95.
# Function experiments. The tunica albuginea was cut longitudinally, starting at the most proximal point of the corpus cavernosum (CC) toward the penile shaft, and the erectile tissue was partially dissected free from the tunica. One strip of tissue (0.3×0.3×3 mm) was obtained from each corpus cavernosum. The contractility of each isolated corpus cavernosum smooth muscle cells (CCSM) strip was measured using an isometric force transducer (AD Instrument Inc., Georgia, Vt., USA). The strip was mounted in a thermostatically controlled tissue bath containing aerated PSS (mM: 119 NaCl, 4.7 KCl, 24 NaHCO 3, 1.2 KH2PO4, 2.5 CaCl2, 1.2 MgSO4, 0.023 EDTA, and 11 glucose; 5 ml volume, 95% O2 and 5% CO2, 37° C.) and stretched to a resting tension of 0.1 mN. The contractile responses of the strips were analysed by adding 10 μM phenylephrine to the bath, and force changes were recorded in response to drug application and to electrical field stimulation. The particular electrical field stimulation parameters of 0-30V, 30 HZ with a pulse width of approximately 0.5 ms, are commonly used in the mice. […] The changes of cAMP and cGMP contents in CC strips were subsequently measured by commercial enzyme immunoassay kit (Amersham Pharmacia) (see below).
# [3] = CCS of SCD transgenic mice versus untreated CCS
Structure (SMILES),"adenosine-mediated induction of cAMP was inhibited ([1]; CCS, MRS1706 10 μM, L-NAME 100 μM)","force, duration and area under baseline of EFS-induced relaxation [2, 3]","force, duration and area under baseline of EFS-induced relaxation ([2]; CCS of the controls)","cAMP levels ([1]; wild type penile organ culture, 10 min)"
CCCn1c(=O)c2[nH]c(-c3ccc(OCC(=O)Nc4ccc(C(C)=O)cc4)cc3)nc2n(CCC)c1=O [MRS1706],inhibited,"reduced the force, duration and area under baseline","decreased the force, duration and area under baseline",–
Nc1nc(NCCc2ccc(O)cc2)nc2nc(-c3ccco3)nn12 [ZM241385],–,not,–,–
Nc1ncnc2c1ncn2[C@@H]1O[C@H](CO)[C@@H](O)[C@H]1O [adenosine],–,–,–,induced cAMP levels in a dose-dependent manner

# Source: patent publication US20100254965A1, “Adenosine Signaling in Diagnosis, Treatment, and Prevention of Priapism and Erectile Dysfunction” (BOARD OF REGENTS ,THE UNIVERSITY OF TEXAS SYSTEM, priority 2006, published 2010)
